Results from patent US10131652B2, “Pyrimidinyloxy benzene derivatives as herbicides” (E. I. DU PONT DE NEMOURS AND COMPANY, priority 2014, dated 2018).

What was measured:
Assay type in all cases: in vivo
[1] = test system: barnyardgrass (Echinochloa crus-galli); experiment: Test D pre-/postemergence plant response
How it was run: (§1)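 Each compound, in non-phytotoxic solvent with surfactant, was sprayed onto soil right after sowing or onto young plants 2 to 18 cm tall. After 13 to 15 days under greenhouse conditions, effects were judged visually against controls on a 0 (no effect) to 100 (complete control) scale.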

[2] = test system: oilseed rape (Brassica napus); experiment: Test D pre-/postemergence plant response
How it was run: as §1

[3] = test system: galium (catchweed bedstraw, Galium aparine); experiment: Test D pre-/postemergence plant response
How it was run: as §1

[4] = test system: Italian ryegrass (Lolium multiflorum); experiment: Test D pre-/postemergence plant response
How it was run: as §1

[5] = test system: pigweed (Amaranthus retroflexus); experiment: Test D pre-/postemergence plant response
How it was run: as §1

[6] = test system: large (Lg) crabgrass (Digitaria sanguinalis); experiment: Test D pre-/postemergence plant response
How it was run: as §1

[7] = test system: yellow nutsedge (Cyperus esculentus); experiment: Test D pre-/postemergence plant response
How it was run: as §1

[8] = test system: blackgrass (Alopecurus myosuroides); experiment: Test D pre-/postemergence plant response
How it was run: as §1

[9] = test system: giant foxtail (Setaria faberii); experiment: Test D pre-/postemergence plant response
How it was run: as §1

corn (Zea mays) = experiment: Test D pre-/postemergence plant response
How it was run: as §1

[10] = test system: ragweed (common ragweed, Ambrosia elatior); experiment: Test D pre-/postemergence plant response
How it was run: as §1

[11] = test system: Italian ryegrass (Lolium multiflorum); experiment: Test B pre-/postemergence plant response; details: for Ryegrass, Italian plant response rating: 0 to 100 scale (0 no effect, 100 complete control)
How it was run: (§2)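 Evaluation is visual, about 10 days after application, rating injury from 0 (none) to 100 (complete control) relative to untreated controls. Application was a preemergence soil spray on seeded pots or a postemergence spray on one- to two-leaf plants.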

kochia (Kochia scoparia) = experiment: Test B pre-/postemergence plant response; details: for Kochia plant response rating: 0 to 100 scale (0 no effect, 100 complete control)
How it was run: as §2

[12] = test system: ragweed (common ragweed, Ambrosia elatior); experiment: Test B pre-/postemergence plant response; details: for Ragweed plant response rating: 0 to 100 scale (0 no effect, 100 complete control)
How it was run: as §2

[13] = Postemergence, 16 g ai/ha, scale 0 to 100 (0 no effect, 100 complete control)
[14] = Postemergence, 31 g ai/ha, scale 0 to 100 (0 no effect, 100 complete control)
[15] = Postemergence, 62 g ai/ha, scale 0 to 100, 0 no effect, 100 complete control
[16] = Postemergence, 125 g ai/ha, scale 0 to 100, 0 no effect, 100 complete control
[17] = 31 g ai/ha, Postemergence, 0 to 100 scale, 0 no effect, 100 complete control
[18] = 125 g ai/ha, postemergence, 0 to 100 scale, 0 no effect, 100 complete control
[19] = Preemergence, 125 g ai/ha, 0 to 100 scale where 0 is no effect and 100 is complete control
[20] = Preemergence, 16 g ai/ha, scale 0 to 100 (0 no effect, 100 complete control)
[21] = Preemergence, 31 g ai/ha, scale 0 to 100 (0 no effect, 100 complete control)
[22] = Preemergence, 62 g ai/ha, scale 0 to 100 (0 no effect, 100 complete control)

Fc1ccc(Oc2ncc(Cl)cn2)c(-c2cc(C(F)F)on2)c1Cl [Compound 96]
Barnyardgrass plant response rating [1, 13]: 0 | Barnyardgrass plant response rating [1, 14]: 0 | Plant response rating, Barnyardgrass [1, 15]: 5 | Plant response rating, Barnyardgrass [1, 16]: 5 | Oilseed Rape plant response rating [2, 13]: 40 | Oilseed Rape plant response rating [2, 14]: 45 | Plant response rating, Oilseed Rape [2, 15]: 65 | Plant response rating, Oilseed Rape [2, 16]: 65 | Galium plant response rating [3, 13]: 70 | Galium plant response rating [3, 14]: 90 | Plant response rating, Galium [3, 15]: 80 | Plant response rating, Galium [3, 16]: 98 | Ryegrass, Italian plant response rating [4, 13]: 0 | Ryegrass, Italian plant response rating [4, 14]: 5 | Plant response rating, Ryegrass, Italian [4, 15]: 10 | Plant response rating, Ryegrass, Italian [4, 16]: 10 | Pigweed plant response rating [5, 13]: 98 | Pigweed plant response rating [5, 14]: 95 | Plant response rating, Pigweed [5, 15]: 98 | Plant response rating, Pigweed [5, 16]: 98 | Crabgrass, Large plant response rating [6, 13]: 5 | Crabgrass, Large plant response rating [6, 14]: 5 | Plant response rating, Crabgrass, Large [6, 15]: 5 | Plant response rating, Crabgrass, Large [6, 16]: 10 | Nutsedge, Yellow plant response rating [7, 13]: 0 | Nutsedge, Yellow plant response rating [7, 14]: 5 | Plant response rating, Nutsedge, Yellow [7, 15]: 5 | Plant response rating, Nutsedge, Yellow [7, 16]: 5 | Blackgrass plant response rating [8, 13]: 0 | Blackgrass plant response rating [8, 14]: 10 | Plant response rating, Blackgrass [8, 15]: 10 | Plant response rating, Blackgrass [8, 16]: 20 | Foxtail, Giant plant response rating [9, 13]: 0 | Foxtail, Giant plant response rating [9, 14]: 5 | Plant response rating, Foxtail, Giant [9, 15]: 10 | Plant response rating, Foxtail, Giant [9, 16]: 10 | Corn plant response rating (corn (Zea mays); [13]): 5 | Corn plant response rating (corn (Zea mays); [14]): 15 | Plant response rating, Corn (corn (Zea mays); [15]): 5 | Plant response rating, Corn (corn (Zea mays); [16]): 5 | Ragweed plant response rating [10, 13]: 0 | Ragweed plant response rating [10, 14]: 10 | Plant response rating, Ragweed [10, 15]: 10 | Plant response rating, Ragweed [10, 16]: 40 | Plant response rating, Ryegrass, Italian [11, 17]: 30 | Plant response rating, Ryegrass, Italian [11, 18]: 60 | Ryegrass, Italian plant response rating ([11]; Preemergence, 31 g ai/ha): 0 | Plant response rating, Ryegrass, Italian [11, 19]: 0 | Plant response rating, Kochia (kochia (Kochia scoparia); [17]): 70 | Plant response rating, Kochia (kochia (Kochia scoparia); [18]): 100 | Kochia plant response rating (kochia (Kochia scoparia); Preemergence, 31 g ai/ha): 50 | Plant response rating, Kochia (kochia (Kochia scoparia); [19]): 70 | Plant response rating, Ragweed [12, 17]: 50 | Plant response rating, Ragweed [12, 18]: 60 | Ragweed plant response rating ([12]; Preemergence, 31 g ai/ha): 0 | Plant response rating, Ragweed [12, 19]: 0

COc1cccc(Oc2ncc(Cl)cn2)c1-c1cc(C(F)(F)F)no1 [Compound 104]
Plant response rating (scale 0 to 100), Barnyardgrass ([1]; Preemergence, 62 g ai/ha): 25 | Plant response rating (scale 0 to 100), Barnyardgrass ([1]; Preemergence, 125 g ai/ha): 70 | Plant response rating, Barnyardgrass [1, 20]: 0 | Plant response rating, Barnyardgrass [1, 21]: 10 | Plant response rating (scale 0 to 100), Oilseed Rape ([2]; Preemergence, 125 g ai/ha): 50 | Plant response rating, Oilseed Rape [2, 20]: 0 | Plant response rating, Oilseed Rape [2, 21]: 0 | Plant response rating, Oilseed Rape [2, 22]: 30 | Plant response rating (scale 0 to 100), Galium ([3]; Preemergence, 125 g ai/ha): 70 | Plant response rating, Galium [3, 20]: 90 | Plant response rating, Galium [3, 21]: 80 | Plant response rating, Galium [3, 22]: 75 | Plant response rating (scale 0 to 100), Ryegrass, Italian ([4]; Preemergence, 125 g ai/ha): 5 | Plant response rating, Ryegrass, Italian [4, 20]: 0 | Plant response rating, Ryegrass, Italian [4, 21]: 0 | Plant response rating, Ryegrass, Italian [4, 22]: 0 | Plant response rating (scale 0 to 100), Pigweed ([5]; Preemergence, 125 g ai/ha): 100 | Plant response rating, Pigweed [5, 20]: 100 | Plant response rating, Pigweed [5, 21]: 100 | Plant response rating, Pigweed [5, 22]: 100 | Plant response rating (scale 0 to 100), Crabgrass, Large ([6]; Preemergence, 125 g ai/ha): 100 | Plant response rating, Crabgrass, Large [6, 20]: 65 | Plant response rating, Crabgrass, Large [6, 21]: 85 | Plant response rating, Crabgrass, Large [6, 22]: 98 | Plant response rating (scale 0 to 100), Nutsedge, Yellow ([7]; Preemergence, 125 g ai/ha): 0 | Plant response rating, Nutsedge, Yellow [7, 20]: 0 | Plant response rating, Nutsedge, Yellow [7, 21]: 0 | Plant response rating, Nutsedge, Yellow [7, 22]: 0 | Plant response rating (scale 0 to 100), Blackgrass ([8]; Preemergence, 125 g ai/ha): 30 | Plant response rating, Blackgrass [8, 20]: 0 | Plant response rating, Blackgrass [8, 21]: 0 | Plant response rating, Blackgrass [8, 22]: 0 | Plant response rating (scale 0 to 100), Foxtail, Giant ([9]; Preemergence, 125 g ai/ha): 100 | Plant response rating, Foxtail, Giant [9, 20]: 30 | Plant response rating, Foxtail, Giant [9, 21]: 80 | Plant response rating, Foxtail, Giant [9, 22]: 90 | Plant response rating (scale 0 to 100), Corn (corn (Zea mays); Preemergence, 125 g ai/ha): 0 | Plant response rating, Corn (corn (Zea mays); [20]): 0 | Plant response rating, Corn (corn (Zea mays); [21]): 0 | Plant response rating, Corn (corn (Zea mays); [22]): 0 | Plant response rating (scale 0 to 100), Ragweed ([10]; Preemergence, 125 g ai/ha): 60 | Plant response rating, Ragweed [10, 20]: 40 | Plant response rating, Ragweed [10, 21]: 25 | Plant response rating, Ragweed [10, 22]: 55 | Plant response rating, Ryegrass, Italian [11, 17]: 0 | Plant response rating, Ryegrass, Italian [11, 18]: 30 | Ryegrass, Italian plant response rating ([11]; Preemergence, 31 g ai/ha): 0 | Plant response rating, Ryegrass, Italian [11, 19]: 10 | Plant response rating, Kochia (kochia (Kochia scoparia); [17]): 50 | Plant response rating, Kochia (kochia (Kochia scoparia); [18]): 80 | Kochia plant response rating (kochia (Kochia scoparia); Preemergence, 31 g ai/ha): 0 | Plant response rating, Kochia (kochia (Kochia scoparia); [19]): 10 | Plant response rating, Ragweed [12, 17]: 10 | Plant response rating, Ragweed [12, 18]: 10 | Ragweed plant response rating ([12]; Preemergence, 31 g ai/ha): 0 | Plant response rating, Ragweed [12, 19]: 0
